BigSolDB 2.1

CC(=O)c1c(C)c([N+](=O)[O-])c(C(C)(C)C)c([N+](=O)[O-])c1C
solubility (mole fraction)
Conditions	278.15 K	283.15 K	288.15 K	293.15 K	298.15 K	303.15 K	308.15 K	313.15 K	318.15 K
in DMAc	0.113	0.129	0.147	0.165	0.185	0.206	0.228	0.252	0.278
in DMF	0.0732	0.0856	0.0993	0.115	0.131	0.149	0.169	0.191	0.215
in THF	0.148	0.165	0.183	0.202	0.221	0.243	0.266	0.288	0.313
in acetonitrile	0.0141	0.0174	0.0213	0.0259	0.0314	0.0379	0.0455	0.0545	0.0644
in cyclohexane	0.00275	0.00348	0.00439	0.00547	0.0068	0.00853	0.0104	0.0127	0.0153
in ethanol	0.00201	0.00251	0.00304	0.00364	0.00435	0.00521	0.00622	0.00743	0.00869
in ethyl acetate	0.065	0.0744	0.0846	0.0959	0.108	0.121	0.136	0.151	0.168
in isopropanol	0.00159	0.002	0.00259	0.00332	0.00414	0.00521	0.00651	0.008	0.00982
in methanol	0.00127	0.00155	0.00188	0.00227	0.00272	0.00324	0.00385	0.00455	0.00533
in n-butanol	0.00299	0.0037	0.00455	0.00557	0.00679	0.00823	0.00993	0.0119	0.0141
in n-heptane	0.00184	0.00228	0.00281	0.00344	0.00419	0.00508	0.00613	0.00737	0.00878
in n-hexane	0.00164	0.00202	0.00248	0.00302	0.00365	0.0044	0.00527	0.00629	0.00744
